Results taken from the NIST ThermoML archive (doi:10.1021/je100687x).

What was measured:
[1] = 101 kPa, Liquid; for electrical conductivity: Crison GLP 31+ conductivimeter
[2] = xn = mol fraction of the nth substance listed; settings: 101 kPa, Liquid; for electrical conductivity: Crison GLP 31+ conductivimeter

CCCCCCCC[n+]1ccn(C)c1.F[B-](F)(F)F [1-methyl-3-octylimidazolium tetrafluoroborate]
[1]
Settings | electrical conductivity [S/m] | viscosity [mPa·s]
288.15 K | – | 686
298.15 K | 0.069 | 337.4
308.15 K | – | 187.7
318.15 K | – | 112.1

CCO [ethanol] + CCn1cc[n+](C)c1.F[B-](F)(F)F
[2], x1 = 1
Settings | viscosity [mPa·s]
288.15 K | 1.296
298.15 K | 1.091
308.15 K | 0.9153
318.15 K | 0.7738

CCO [ethanol] + CCCCCCCC[n+]1ccn(C)c1.F[B-](F)(F)F
Settings | electrical conductivity [S/m]
[2], 298.15 K, x1 = 1 | 3e-05

CCCCCCn1cc[n+](C)c1.F[B-](F)(F)F [1-hexyl-3-methylimidazolium tetrafluoroborate]
[1]
Settings | electrical conductivity [S/m] | viscosity [mPa·s]
288.15 K | – | 357.5
298.15 K | 0.126 | 190.9
308.15 K | – | 110.3
318.15 K | – | 68.5

CCCCn1cc[n+](C)c1.F[B-](F)(F)F [1-butyl-3-methylimidazolium tetrafluoroborate]
[1]
Settings | electrical conductivity [S/m] | viscosity [mPa·s]
288.15 K | – | 173.5
298.15 K | 0.352 | 99.2
308.15 K | – | 61.3
318.15 K | – | 40.4

CCO [ethanol]
[1]
Settings | electrical conductivity [S/m] | viscosity [mPa·s]
288.15 K | – | 1.296
298.15 K | 3e-05 | 1.091
308.15 K | – | 0.9153
318.15 K | – | 0.7738

CCn1cc[n+](C)c1.F[B-](F)(F)F [1-ethyl-3-methylimidazolium tetrafluoroborate] + CCO
[2]
Settings | electrical conductivity [S/m] | viscosity [mPa·s]
288.15 K, x2 = 0 | – | 55.5
288.15 K, x2 = 0.0946 | – | 34.76
288.15 K, x2 = 0.1928 | – | 25.25
288.15 K, x2 = 0.2757 | – | 20.25
288.15 K, x2 = 0.3116 | – | 18.17
288.15 K, x2 = 0.3913 | – | 13.68
288.15 K, x2 = 0.4553 | – | 12.47
298.15 K, x2 = 0 | 1.63 | 36.9
298.15 K, x2 = 0.028 | 1.718 | –
298.15 K, x2 = 0.057 | 1.843 | –
298.15 K, x2 = 0.0719 | 1.911 | –
298.15 K, x2 = 0.0946 | – | 24.46
298.15 K, x2 = 0.1034 | 2.061 | –
298.15 K, x2 = 0.1624 | 2.287 | –
298.15 K, x2 = 0.1928 | – | 18.33
298.15 K, x2 = 0.242 | 2.647 | –
298.15 K, x2 = 0.2757 | – | 14.92
298.15 K, x2 = 0.3116 | – | 13.47
298.15 K, x2 = 0.3165 | 2.982 | –
298.15 K, x2 = 0.3892 | 3.228 | –
298.15 K, x2 = 0.3913 | – | 10.3
298.15 K, x2 = 0.4085 | 3.278 | –
298.15 K, x2 = 0.4322 | 3.26 | –
298.15 K, x2 = 0.4511 | 3.47 | –
298.15 K, x2 = 0.4553 | – | 8.445
298.15 K, x2 = 0.4613 | 3.561 | –
308.15 K, x2 = 0 | – | 26
308.15 K, x2 = 0.0946 | – | 18.04
308.15 K, x2 = 0.1928 | – | 13.88
308.15 K, x2 = 0.2757 | – | 11.39
308.15 K, x2 = 0.3116 | – | 10.38
308.15 K, x2 = 0.3913 | – | 8.074
308.15 K, x2 = 0.4553 | – | 6.668
318.15 K, x2 = 0 | – | 19.17
318.15 K, x2 = 0.0946 | – | 13.79
318.15 K, x2 = 0.1928 | – | 10.84
318.15 K, x2 = 0.2757 | – | 8.958
318.15 K, x2 = 0.3116 | – | 8.238
318.15 K, x2 = 0.3913 | – | 6.494
318.15 K, x2 = 0.4553 | – | 5.408

CCn1cc[n+](C)c1.F[B-](F)(F)F [1-ethyl-3-methylimidazolium tetrafluoroborate]
[1]
Settings | electrical conductivity [S/m] | viscosity [mPa·s]
288.15 K | – | 55.5
298.15 K | 1.63 | 36.9
308.15 K | – | 26
318.15 K | – | 19.17
